Assay results from patent US12559455B2, “Compound as a UBR box domain ligand” (AUTOTAC INC., priority 2020, dated 2026).

What was measured:
UBR box of Human UBR1 = biological target: T1, UBR box of Human UBR1 (Homo sapiens, UniProt Q8IWV7); assay: UBR box domain binding by microscale thermophoresis (MST); conditions: RED-NHS labeled UBR1 UBR box protein (Gln97-Pro168), FIGS. 12 to 19
T1 construct: A Gln97-Pro168 portion corresponding to the UBR box of Human UBR1; made in house; host or cells: E. coli
T1 sequence (Q8IWV7 97-168): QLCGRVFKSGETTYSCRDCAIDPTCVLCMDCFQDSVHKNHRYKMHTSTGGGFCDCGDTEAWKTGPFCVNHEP
Procedure: A Gln97-Pro168 portion corresponding to the UBR box of Human UBR1 (UniProt ID: Q81WV7) was cloned into a modified expression vector, and then expressed in E. coli. After affinity chromatography was used, a tag was removed by a protease, and then Gly-His-Met was added to the N-terminal. After ion chromatography was performed, a final UBR box protein of a UBR1 was purified using gel filtration chromatography in a buffer composition of 10 mM NaCl, 20 mM Tris-HCl, 2 mM beta-mercaptoethanol, and pH 7.5.
A dye of the Monolith protein labeling kit RED-NHS 2nd generation (Cat #MO-L011) has an NHS-ester group that forms a covalent bond with primary amines (lysine residues). This dye is optimized for a Monolith-series device equipped with a RED detector. A purified UBR1 UBR box protein was labeled according to the presented protocol using this kit.
Thermophoresis refers to a phenomenon in which particles move due to a temperature gradient. Particles present in a high temperature region have greater kinetic energy than particles present in a low temperature region, and more frequently collide with surrounding particles with greater energy. As a result, particles move from the high temperature region to the low temperature region.
Thermophoresis of proteins is typically different from that of protein-ligand complexes. This is because the binding of the ligand changes its size, electric charge, and solvation energy. […] Therefore, the binding of the UBR1 UBR box protein and the ligand compound was measured using MST, and it was confirmed that the presented ligand binds to the UBR1 UBR box (see FIGS. 12 to 19).

UBR1 [1] = biological target: T2, UBR1 (Rattus norvegicus, UniProt A0A8I5ZK69); assay: Inhibition of muscle cell actin degradation by immunoblotting; type: cell-based; conditions: L6 cell line, compound 5 uM, 24 hours
T2 construct: endogenous in cells; host or cells: L6 rat muscle-derived cells
T2 sequence (A0A8I5ZK69 1-1749): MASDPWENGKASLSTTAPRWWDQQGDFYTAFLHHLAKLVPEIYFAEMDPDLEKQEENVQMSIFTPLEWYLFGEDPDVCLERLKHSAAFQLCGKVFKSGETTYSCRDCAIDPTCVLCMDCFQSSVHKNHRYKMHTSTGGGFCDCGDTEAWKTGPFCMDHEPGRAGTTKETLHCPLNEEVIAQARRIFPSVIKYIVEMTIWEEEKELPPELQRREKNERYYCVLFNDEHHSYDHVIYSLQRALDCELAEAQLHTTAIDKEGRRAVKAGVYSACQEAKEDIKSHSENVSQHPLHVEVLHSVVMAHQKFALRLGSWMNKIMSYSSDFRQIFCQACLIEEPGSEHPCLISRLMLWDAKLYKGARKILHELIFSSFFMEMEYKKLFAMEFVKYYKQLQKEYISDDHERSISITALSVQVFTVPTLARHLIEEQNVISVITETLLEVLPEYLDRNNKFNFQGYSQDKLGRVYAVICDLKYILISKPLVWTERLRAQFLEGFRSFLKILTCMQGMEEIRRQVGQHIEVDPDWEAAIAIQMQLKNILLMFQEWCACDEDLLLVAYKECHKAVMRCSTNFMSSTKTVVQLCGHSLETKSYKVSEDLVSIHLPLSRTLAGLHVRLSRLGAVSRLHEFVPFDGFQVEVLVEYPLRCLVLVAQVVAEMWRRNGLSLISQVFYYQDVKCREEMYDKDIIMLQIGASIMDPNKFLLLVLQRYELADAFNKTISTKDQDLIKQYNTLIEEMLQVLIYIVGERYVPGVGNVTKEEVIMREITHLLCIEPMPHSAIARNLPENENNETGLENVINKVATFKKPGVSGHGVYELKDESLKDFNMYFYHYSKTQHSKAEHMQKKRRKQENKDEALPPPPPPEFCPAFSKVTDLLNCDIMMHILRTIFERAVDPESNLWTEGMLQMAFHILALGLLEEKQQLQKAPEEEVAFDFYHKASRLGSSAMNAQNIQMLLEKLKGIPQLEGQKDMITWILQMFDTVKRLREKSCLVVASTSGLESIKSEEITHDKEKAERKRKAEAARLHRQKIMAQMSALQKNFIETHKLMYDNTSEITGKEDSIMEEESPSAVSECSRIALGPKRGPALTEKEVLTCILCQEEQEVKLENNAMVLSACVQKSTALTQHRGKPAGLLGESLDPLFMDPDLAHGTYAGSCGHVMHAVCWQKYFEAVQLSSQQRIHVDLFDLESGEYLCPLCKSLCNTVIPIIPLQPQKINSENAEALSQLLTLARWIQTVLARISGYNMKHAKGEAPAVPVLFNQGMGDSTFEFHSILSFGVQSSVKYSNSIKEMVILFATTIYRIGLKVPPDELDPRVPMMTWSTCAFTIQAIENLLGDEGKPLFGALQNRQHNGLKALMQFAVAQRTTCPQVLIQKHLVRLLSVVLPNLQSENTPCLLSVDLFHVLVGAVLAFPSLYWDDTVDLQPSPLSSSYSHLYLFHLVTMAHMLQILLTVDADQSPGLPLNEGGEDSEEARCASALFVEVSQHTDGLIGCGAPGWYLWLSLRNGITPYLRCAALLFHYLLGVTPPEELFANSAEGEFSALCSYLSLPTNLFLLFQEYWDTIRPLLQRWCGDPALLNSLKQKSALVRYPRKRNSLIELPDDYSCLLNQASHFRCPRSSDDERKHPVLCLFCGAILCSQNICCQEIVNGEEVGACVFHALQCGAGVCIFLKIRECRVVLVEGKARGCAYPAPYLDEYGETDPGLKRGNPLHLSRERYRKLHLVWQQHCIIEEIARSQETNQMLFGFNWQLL
Procedure: To evaluate the actin degradation of compounds in muscle cells, a L6 cell line, which is a rat muscle-derived cell, was cultured using a DMEM medium containing 10% FBS and 1% streptomycin/penicillin in an incubator in which 5% carbon dioxide was maintained. In order to measure the UBR1 binding strength according to the treatment with a representative compound selected from the present compounds, cells were aliquoted into a 12-well plate. The cells were additionally cultured for 24 hours so as to be completely attached to the surface of the plate. […] To extract proteins from the collected cells, 50 uL of a lysis buffer (20 mM Tris, pH 7.4, 150 mM NaCl, 1% Triton-X-100, 2 mM NaF, 2 mM EDTA, 2 mM b-glycerophosphate, 5 mM sodium orthovanadate, 1 mM PMSF, leupeptin, aprotenin) was injected into each sample, and the cells were lysed. A sample buffer was added to each sample based on the measured total protein concentration, and the mixture was reacted at 100° C. for 5 minutes. After 5 uL was taken from the completely reacted sample and aliquoted into each well of an acrylamide gel, an immunoblotting method was performed, and the experimental results were illustrated in [FIG. 4], [FIG. 5], [FIG. 6], [FIG. 7], [FIG. 8], and [FIG. 9]. For the immunoblotting method, a representative experiment was schematized from three or more independent experiments.

UBR1 [2] = assay: Inhibition of R-nsP4 degradation by in vitro transcription/translation method; type: biochemical; conditions: compound 1 uM, 30° C. for 40 minutes, DHFR-Ub-R-nsP4 plasmid, immunoblotting
Procedure: A TnT® Quick Coupled Transcription/Translation System kit was used to confirm the R-nsP4 expression of the compounds. After a pre-mix was made using Transcend Biotin-Lysyl-tRNA, methionine, bestatin, a TnTquick Master mix and a DHFR-Ub-R-nsP4 plasmid, the pre-mix was mixed with a compound (1 uM). After each sample was reacted at 30° C. for 40 minutes, a 5×SDS loading dye was added thereto. After the resulting mixture was reacted at 95° C. for 2 minutes, 5 uL was taken and aliquoted into each well of an acrylamide gel, and then an immunoblotting method was performed, and the experimental results are illustrated in [FIG. 2]. For an in vitro transcription/translation method, a representative experiment was schematized from three or more independent experiments.
Referring to FIG. 2, it can be confirmed that the level of R-nsP4 is increased by Compound 2, Compound 3, Compound 7, Compound 12, Compound 14, and Compound 16 compared to the control. That is, it could be confirmed that in the case of treatment with the compound according to the present invention, the R-nsP4 level was increased by binding to UBR1.

UBR1 [3] = biological target: T2, UBR1; assay: Inhibition of intracellular RGS4 degradation by transfection (immunoblotting); type: cell-based; conditions: L6 cell line transfected with RGS4 plasmid, compound 5 uM, 24 hours
Procedure: A L6 cell line, which is a rat muscle-derived cell, was cultured using a DMEM medium containing 10% FBS and 1% streptomycin/penicillin in an incubator in which 5% carbon dioxide was maintained. In order to measure the UBR1 binding strength according to the treatment with a representative compound selected from the present compounds, cells were aliquoted into a 6-well plate. The cells were additionally cultured for 24 hours so as to be completely attached to the surface of the plate. Opti-MEM, Lipofectamine, and an RGS4plasmid was reacted for transfection. After the reaction was completed, the cells are treated such that DNA was expressed intracellularly. […] To extract proteins from the collected cells, 50 uL of a lysis buffer (20 mM Tris, pH 7.4, 150 mM NaCl, 1% Triton-X-100, 2 mM NaF, 2 mM EDTA, 2 mM b-glycerophosphate, 5 mM sodium orthovanadate, 1 mM PMSF, leupeptin, aprotenin) was injected into each sample, and the cells were lysed. A sample buffer was added to each sample based on the measured total protein concentration, and the mixture was reacted at 100° C. for 5 minutes. After 5 uL was taken from the completely reacted sample and aliquoted into each well of an acrylamide gel, an immunoblotting method was performed, and the experimental results are illustrated in [FIG. 3]. […]

Row | Compound | level of ACTA1 compared to the control (UBR1 [1]) | level of ACTA2 compared to the control (UBR1 [1]) | further results
1 | O=C(NNS(=O)(=O)c1ccc(NCCO)cc1)c1ccc(O)cc1 [Compound 11, N′-(4-hydroxybenzoyl)-4-((2-hydroxyethyl)amino)benzenesulfonohydrazide] | – | – | binding to UBR1 UBR box (MST) (UBR box of Human UBR1): binds
2 | COc1ccc(S(=O)(=O)NNC(=O)c2ccc(O)cc2)cc1 [Compound 13, N′-(4-hydroxybenzoyl)-4-methoxybenzenesulfonohydrazide] | – | – | level of ACTG2 compared to the control (UBR1 [1]): further increased; binding to UBR1 UBR box (MST) (UBR box of Human UBR1): binds
3 | Cc1ccc(S(=O)(=O)NNC(=O)c2ccc(O)cc2)cc1 [Compound 1, N′-(4-hydroxybenzoyl)-4-methylbenzenesulfonohydrazide] | further increased | – | binding to UBR1 UBR box (MST) (UBR box of Human UBR1): binds
4 | Nc1ccc(S(=O)(=O)NCC(=O)c2ccc(O)cc2)cc1 [Compound 12, 4-amino-N-(2-(4-hydroxyphenyl)-2-oxoethyl)benzenesulfonamide] | – | – | level of ACTG2 compared to the control (UBR1 [1]): further increased; level of R-nsP4 compared to the control (UBR1 [2]): increased; binding to UBR1 UBR box (MST) (UBR box of Human UBR1): binds
5 | N=C(N)c1ccc(S(=O)(=O)NNC(=O)c2ccc(O)cc2)cc1 [Compound 14, 4-((2-(4-hydroxybenzoyl)hydrazinyl)sulfonyl)benzimidamide] | – | – | level of ACTG2 compared to the control (UBR1 [1]): further increased; level of R-nsP4 compared to the control (UBR1 [2]): increased
6 | Nc1ccc(S(=O)(=O)NNC(=O)c2ccc(O)cc2)cc1N1CCOCC1 [Compound 3, 4-amino-N′-(4-hydroxybenzoyl)-3-morpholinobenzenesulfonohydrazide] | further increased | – | level of R-nsP4 compared to the control (UBR1 [2]): increased; level of RGS4 compared to the control (UBR1 [3]): increased
7 | Nc1ccc(S(=O)(=O)NNC(=O)c2ccc(O)cc2)cc1N1CCNCC1 [Compound 30, 4-amino-N′-(4-hydroxybenzoyl)-3-(piperazin-1-yl)benzenesulfonohydrazide] | – | – | level of ACTG2 compared to the control (UBR1 [1]): further increased
8 | (1R,4R)-4-amino-N′-(4-hydroxybenzoyl)cyclohexane-1-sulfonohydrazide [Compound 44] | further increased | – | –
9 | CC(N)c1ccc(S(=O)(=O)NNC(=O)c2ccc(O)cc2)cc1 (stereo not shown) [Compound 9, 4-(1-aminoethyl)-N′-(4-hydroxybenzoyl)benzenesulfonohydrazide] | – | further increased | binding to UBR1 UBR box (MST) (UBR box of Human UBR1): binds
10 | O=C(NNS(=O)(=O)c1cccc2c1CCN2)c1ccc(O)cc1 [Compound 25, N′-(4-hydroxybenzoyl)indoline-4-sulfonohydrazide] | – | further increased | –
11 | Nc1ccc(S(=O)(=O)NNC(=O)c2c[nH]c3ccccc23)cc1 [Compound 20, 4-amino-N′-(1H-indole-3-carbonyl)benzenesulfonohydrazide] | – | further increased | –
12 | NC(=O)c1ccc(S(=O)(=O)NNC(=O)c2ccc(O)cc2)cc1 [Compound 15, 4-((2-(4-hydroxybenzoyl)hydrazinyl)sulfonyl)benzamide] | – | – | level of ACTG2 compared to the control (UBR1 [1]): further increased
13 | Nc1ccc(S(=O)(=O)NNC(=O)c2ccc3c(c2)NCC3)cc1N1CCOCC1 [Compound 39, 4-amino-N′-(indoline-6-carbonyl)-3-morpholinobenzenesulfonohydrazide] | further increased | – | –
14 | Nc1ccc(S(=O)(=O)NNC(=O)c2cccc(-c3ccccc3)c2)cc1 [Compound 7, N′-([1,1′-biphenyl]-3-carbonyl)-4-aminobenzenesulfonohydrazide] | further increased | – | level of R-nsP4 compared to the control (UBR1 [2]): increased
15 | Nc1ccc(S(=O)(=O)CNC(=O)c2ccc(O)cc2)cc1 [Compound 16, N-(((4-aminophenyl)sulfonyl)methyl)-4-hydroxybenzamide] | further increased | – | level of R-nsP4 compared to the control (UBR1 [2]): increased

Second part, led by results:

Row | level of ACTA1 compared to the control (UBR1 [1]) | level of ACTA2 compared to the control (UBR1 [1]) | Compound | further results
16 | – | further increased | Nc1cccc(S(=O)(=O)NNC(=O)c2ccc(O)cc2)c1 [Compound 8, 3-amino-N′-(4-hydroxybenzoyl)benzenesulfonohydrazide] | binding to UBR1 UBR box (MST) (UBR box of Human UBR1): binds
17 | further increased | – | O=C(NNS(=O)(=O)c1n[nH]c2ccccc12)c1ccc(O)cc1 [Compound 35, N′-(4-hydroxybenzoyl)-1H-indazole-3-sulfonohydrazide] | –
18 | – | further increased | Nc1ccc(S(=O)(=O)NNC(=O)Nc2ccccc2)cc1 [Compound 27, 2-((4-aminophenyl)sulfonyl)-N-phenylhydrazine-1-carboxamide] | –
19 | – | further increased | Nc1ccc(S(=O)(=O)NNC(=O)N2Cc3ccccc3C2)cc1 [Compound 32, 4-amino-N′-(isoindoline-2-carbonyl)benzenesulfonohydrazide] | –
20 | – | further increased | Nc1ccc(S(=O)(=O)NNC(=O)Cc2ccccc2)cc1 [Compound 34, 4-amino-N′-(2-phenylacetyl)benzenesulfonohydrazide] | –
21 | further increased | – | O=C(NNS(=O)(=O)C1CCNCC1)c1ccc(O)cc1 [Compound 38, N′-(4-hydroxybenzoyl)piperidine-4-sulfonohydrazide] | –
22 | further increased | – | NC1CCC(S(=O)(=O)NNC(=O)c2ccc(O)cc2)CC1 [Compound 43, (1S,4S)-4-amino-N′-(4-hydroxybenzoyl)cyclohexane-1-sulfonohydrazide] | –
23 | – | further increased | Nc1ccc(CNNC(=O)c2ccc(O)cc2)cc1 [Compound 19, N′-(4-aminobenzyl)-4-hydroxybenzohydrazide] | –
